In ChEMBL document CHEMBL5149963, “Xanthenes in Medicinal Chemistry - Synthetic strategies and biological activities” (Eur J Med Chem, 2021):
pEC50, pIC50: −log10 of the molar value. Converted amounts (≈) assume the structure as drawn.

Tests used:
[1] = Antioxidant activity assessed as DPPH radical scavenging activity relative to control; type: functional; design: concentration or dose not given beside the values
[2] = Antioxidant activity assessed as ABTS radical scavenging activity at 50 to 250 microg/ml incubated for 7 mins relative to control; type: functional; conditions: dose 50-250 µg/ml
[3] = Antioxidant activity assessed as DPPH radical scavenging activity at 50 to 250 microg/ml incubated for 20 mins relative to control; type: functional; conditions: dose 50-250 µg/ml
NB-4 = test: Antiproliferative activity against human NB-4 cells; type: functional, cell-based
Bacillus subtilis = test: Antibacterial activity against Bacillus subtilis ATCC 23857 by disc diffusion assay; type: functional
HepG2 = test: Antiproliferative activity against human HepG2 cells assessed as reduction in cell viability measured after 48 hrs by trypan blue staining method; type: functional, cell-based; conditions: HepG2, 48 h
SW480 = test: Antiproliferative activity against human SW480 cells assessed as reduction in cell viability measured after 48 hrs by trypan blue staining method; type: functional, cell-based; conditions: SW480, 48 h
Vaccinia virus = test: In vivo antiviral activity against Vaccinia virus infected in mouse assessed as reduction in virus severity of virus induced tail lesion at 250 mg/kg, po measured after 24 to 48 hrs relative to control; type: functional, Orthopoxvirus vaccinia; design: scale not given: the % may be the effect or the level left; conditions: time 24-48 hrs
MCF7 = test: Cytotoxicity against human MCF7 cells assessed as reduction in cell viability by MTT assay; type: functional, cell-based
MDA-MB-231 = test: Cytotoxicity against human MDA-MB-231 cells assessed as reduction in cell viability by MTT assay; type: functional, cell-based
Plasmodium falciparum [4] = test: Antimalarial activity against chloroquine resistant Plasmodium falciparum K1 in human erythrocytes; type: functional, organism-based; conditions: K1, Erythrocyte
CHO = test: Cytotoxicity against CHO cells measured after 48 hrs by MTT assay; type: toxicity, cell-based, Cricetulus griseus; conditions: chinese hamster
MG-63 [5] = test: Cytotoxicity against human MG-63 cells incubated for 48 hrs by MTT assay; type: functional, cell-based; conditions: MG-63, 48 h
Bel-7402 [6] = test: Cytotoxicity against human Bel-7402 cells incubated for 48 hrs by MTT assay; type: functional, cell-based; conditions: Bel-7402, 48 h
HeLa [7] = test: Cytotoxicity against human HeLa cells incubated for 48 hrs by MTT assay; type: functional, cell-based
SK-BR-3 = test: Cytotoxicity against human SK-BR-3 cells incubated for 48 hrs by MTT assay; type: functional, cell-based; conditions: SK-BR-3, 48 h
[8] = Activation of AMPK in rat L6 cells assessed as increase in AMPK phosphorylation; type: cell-based
[9] = target: Glucocorticoid receptor (Homo sapiens) (UniProt P04150); test: Binding affinity to human GR assessed as inhibition of enzyme substrate complex formation
Sequence of Glucocorticoid receptor (Homo sapiens) (P04150 whole entry): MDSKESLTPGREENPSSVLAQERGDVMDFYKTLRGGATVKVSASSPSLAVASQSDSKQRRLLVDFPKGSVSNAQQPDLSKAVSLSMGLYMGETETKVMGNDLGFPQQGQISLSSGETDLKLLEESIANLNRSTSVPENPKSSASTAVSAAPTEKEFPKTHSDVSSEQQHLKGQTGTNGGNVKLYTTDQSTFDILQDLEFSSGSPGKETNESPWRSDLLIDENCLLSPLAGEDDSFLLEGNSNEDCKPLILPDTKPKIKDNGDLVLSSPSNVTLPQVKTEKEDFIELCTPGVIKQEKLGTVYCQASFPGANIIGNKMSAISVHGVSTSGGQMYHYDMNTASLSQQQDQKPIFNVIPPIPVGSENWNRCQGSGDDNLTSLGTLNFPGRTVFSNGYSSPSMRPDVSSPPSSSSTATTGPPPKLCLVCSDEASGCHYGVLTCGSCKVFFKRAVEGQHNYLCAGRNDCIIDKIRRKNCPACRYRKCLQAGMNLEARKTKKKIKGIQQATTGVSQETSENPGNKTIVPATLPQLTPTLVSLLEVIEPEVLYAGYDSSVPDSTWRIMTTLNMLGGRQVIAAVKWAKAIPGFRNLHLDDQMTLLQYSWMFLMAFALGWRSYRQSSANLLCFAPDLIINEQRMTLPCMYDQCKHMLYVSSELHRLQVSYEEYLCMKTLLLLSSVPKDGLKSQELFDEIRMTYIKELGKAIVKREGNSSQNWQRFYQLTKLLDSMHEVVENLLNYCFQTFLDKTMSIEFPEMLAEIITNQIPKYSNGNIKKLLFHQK

Trypanosoma cruzi = test: Antiprotozoal activity against Trypanosoma cruzi; type: functional; conditions: read-out: ED50 (the source's name)
Trypanosoma brucei = test: Antiprotozoal activity against Trypanosoma brucei; type: functional; conditions: read-out: ED50 (the source's name)
Leishmania donovani = test: Antiprotozoal activity against Leishmania donovani; type: functional; conditions: read-out: ED50 (the source's name)
Plasmodium falciparum [10] = test: Antimalarial activity against chloroquine resistant Plasmodium falciparum K14 in human blood assessed as reduction in parasitemia measured after 42 hrs; type: functional, organism-based
Beta-secretase 1 = Beta-secretase 1 (Homo sapiens, UniProt P56817); test: Inhibition of BACE1 (unknown origin)
Sequence of Beta-secretase 1 (P56817 whole entry): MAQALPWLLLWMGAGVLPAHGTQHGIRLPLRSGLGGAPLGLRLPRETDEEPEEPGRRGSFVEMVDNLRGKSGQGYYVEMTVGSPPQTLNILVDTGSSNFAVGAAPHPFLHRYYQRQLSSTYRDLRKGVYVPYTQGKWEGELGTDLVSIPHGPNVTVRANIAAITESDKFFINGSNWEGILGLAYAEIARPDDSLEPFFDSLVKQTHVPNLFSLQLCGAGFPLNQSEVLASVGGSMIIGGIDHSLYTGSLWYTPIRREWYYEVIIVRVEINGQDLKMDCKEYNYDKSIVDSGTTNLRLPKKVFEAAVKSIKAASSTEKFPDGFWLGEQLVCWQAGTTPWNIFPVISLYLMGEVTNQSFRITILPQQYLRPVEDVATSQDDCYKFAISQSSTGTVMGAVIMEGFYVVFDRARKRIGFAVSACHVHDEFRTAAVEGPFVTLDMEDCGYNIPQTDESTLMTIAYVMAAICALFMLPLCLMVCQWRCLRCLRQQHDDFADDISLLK

[11] = Cytotoxicity against normal foreskin fibroblast cells (unknown origin); type: toxicity, cell-based
[12] = Cytotoxicity against normal primary bone marrow fibroblast cells (unknown origin); type: toxicity, cell-based
[13] = Cytotoxicity against normal lung fibroblast cells (unknown origin); type: toxicity, cell-based
[14] = test system: Human immunodeficiency virus; test: Antiviral activity against Human immunodeficiency virus; type: functional, organism-based; conditions: Human immunodeficiency virus 1
[15] = Cytotoxicity against osteosarcoma cells (unknown origin); type: functional, cell-based; conditions: Osteosarcoma cell
[16] = test system: Vesicular stomatitis virus; test: Antiviral activity against Vesicular stomatitis virus; type: functional, organism-based
[17] = test system: unidentified influenza virus; test: Antiviral activity against influenza virus; type: functional, organism-based
[18] = Cytotoxicity against rhabdomyosarcoma cells (unknown origin); type: functional, cell-based; conditions: Rhabdomyosarcoma cell
[19] = Cytotoxicity against ewing sarcoma cells (unknown origin); type: functional, cell-based; conditions: Ewing sarcoma cell
[20] = Cytotoxicity against neuroblastoma cells (unknown origin); type: functional, cell-based; conditions: Neuroblastoma cell
HeLa [21] = test: Cytotoxicity against human HeLa cells assessed as reduction in cell viability measured after 48 hrs by MTT assay; type: functional, cell-based
MG-63 [22] = test: Cytotoxicity against human MG-63 cells assessed as reduction in cell viability measured after 48 hrs by MTT assay; type: functional, cell-based; conditions: MG-63, 48 h
A549 = test: Cytotoxicity against human A549 cells assessed as reduction in cell viability measured after 48 hrs by MTT assay; type: functional, cell-based; conditions: A549, 48 h
Bel-7402 [23] = test: Cytotoxicity against human Bel-7402 cells assessed as reduction in cell viability measured after 48 hrs by MTT assay; type: functional, cell-based; conditions: Bel-7402, 48 h

O=C(O)/C=C/c1ccc(O)c(O)c1
Activity [1]: 58.6%

Oc1ccc(C2c3c(ccc4ccccc34)Oc3ccc4ccccc4c32)cc1
Activity [2]: 73.2% | Activity [3]: 53.1%

Clc1ccc(C2c3cc(-c4ccccc4)ccc3Oc3ccc4ccccc4c32)cc1 (centres undefined)
pIC50 (NB-4): < 4.30

Cc1ccc(O)c(COCc2cc(C)cc3c2Oc2ccc(C)cc2C3)c1
MIC (Bacillus subtilis): 36.1 µg/mL (≈ 100 µM)

COc1ccc(C2c3c(ccc4ccccc34)Oc3ccc4ccccc4c32)cc1OC
Activity [2]: 70.8% | Activity [3]: 52.6%

COC(=O)c1cc2ccc(OC(C)=O)c3c2c(c1C(=O)OC)-c1cc(OC(C)=O)c(OC(C)=O)cc1O3
pIC50 (HepG2): 4.54 | pIC50 (SW480): 4.59

CN(C)CC(=O)c1ccc2c(c1)Cc1cc(C(=O)CN(C)C)ccc1O2
Activity (Vaccinia virus): 31%

CC/C(=C1\c2ccccc2Oc2cc(OCCN3CCCC3)ccc21)c1ccccc1
pIC50 (MCF7): 4.91 | pIC50 (MDA-MB-231): 4.60

COc1cc(C2c3c(ccc4ccccc34)Oc3ccc4ccccc4c32)ccc1O
Activity [2]: 83.1% | Activity [3]: 86.8%

CN(C)CCCNCC1c2ccccc2Oc2ccccc21
pIC50 (Plasmodium falciparum [4]): 6.11 | IC50 (CHO): 331.1 µM

COC(=O)c1cc2ccc(O)c3c2c(c1C(=O)OC)-c1cc(O)c(O)cc1O3
pIC50 (HepG2): 4.46 | pIC50 (SW480): 4.48

O=C1C(CO)=Cc2cccc3c2C1(O)c1c(ccc2ccccc12)O3 (centres undefined)
pIC50 (MG-63 [5]): 4.26 | pIC50 (Bel-7402 [6]): 4.34 | pIC50 (HeLa [7]): 4.16 | pIC50 (SK-BR-3): 4.58

Cc1ccc(C2c3cc(-c4ccccc4)ccc3Oc3ccc4ccccc4c32)cc1 (centres undefined)
pIC50 (NB-4): < 4.30

CNC(=O)c1ccc2c3c(ccc2c1)Oc1ccc2cc(C(=O)NC)ccc2c1C3c1ccc(F)cc1
pIC50 (NB-4): 6.28

O=C1OC(=O)c2c1cc1ccc(O)c3c1c2-c1cc(O)c(O)cc1O3
pIC50 (HepG2): < 4.00 | pIC50 (SW480): < 4.00

CC(=O)Oc1cc2c(cc1OC(C)=O)-c1c(C(=O)OCCc3ccccc3)c(C(=O)OCCc3ccccc3)cc3ccc(OC(C)=O)c(c13)O2
pIC50 (HepG2): 4.57 | pIC50 (SW480): 5.49

Fc1ccc(C2c3cc(-c4ccccc4)ccc3Oc3ccc4ccccc4c32)cc1 (centres undefined)
pIC50 (NB-4): < 4.30

O=C(Nc1cccc([N+](=O)[O-])c1)NC(NC(=O)C1c2ccccc2Oc2ccccc21)C(Cl)(Cl)Cl (centres undefined)
pEC50 [8]: 5.82

c1ccc(-c2ccc3c(c2)C(c2ccccc2)c2c(ccc4ccccc24)O3)cc1 (centres undefined)
pIC50 (NB-4): < 4.30

N#Cc1cccc(NC(=O)NC(NC(=O)C2c3ccccc3Oc3ccccc32)C(Cl)(Cl)Cl)c1 (centres undefined)
pEC50 [8]: 5.82

Cc1c(C)c2c(c(C)c1O)CCC(C)(CCCC(C)CCCC(C)CCCC(C)C)O2 (racemic)
Activity [1]: 61.1%

Cc1cc2nc3cc(C)c(N)cc3[n+](-c3ccccc3)c2cc1N
Kis [9]: 453 µM

O=C(N[C@H](CO)[C@H](O)c1ccc([N+](=O)[O-])cc1)C(Cl)Cl [CHLORAMPHENICOL]
MIC (Bacillus subtilis): 68.7 µg/mL (≈ 213 µM)

CN(C)CCCNC(=O)c1cc(C(C)(C)C)cc2c1Oc1c(C(=O)NCCCN(C)C)cc(C(C)(C)C)cc1C2(C)C
pEC50 (Trypanosoma cruzi): 6.32 | pEC50 (Trypanosoma brucei): 7.70 | pEC50 (Leishmania donovani): 6.26

Cc1cc(C(C)(C)C)c(O)c(C(C)(C)C)c1
Activity [1]: 3.6%

COC(=O)[C@@]1(O)C[C@@H](OC(=O)c2c(C(=O)O[C@@H]3C[C@](O)(C(=O)OC)C[C@@H]4OC(C)(C)O[C@H]43)cc3ccc(O)c4c3c2-c2cc(O)c(O)cc2O4)[C@@H]2OC(C)(C)O[C@@H]2C1
Activity [1]: 28.1%

COc1cc2c(cc1OC)-c1c(C(=O)OCCc3ccccc3)c(C(=O)OCCc3ccccc3)cc3ccc(OC)c(c13)O2
pIC50 (HepG2): < 4.00 | pIC50 (SW480): < 4.00

COC(=O)c1cc2ccc(OC)c3c2c(c1C(=O)OC)-c1cc(OC)c(OC)cc1O3
pIC50 (HepG2): < 4.00 | pIC50 (SW480): < 4.00

O=C(OCCc1ccccc1)c1cc2ccc(O)c3c2c(c1C(=O)OCCc1ccccc1)-c1cc(O)c(O)cc1O3
Activity [1]: 3.6% | pIC50 (HepG2): 5.32 | pIC50 (SW480): 5.59

CCOc1ccc(N2C(=O)C3(c4ccccc4Oc4ccccc43)C23c2ccccc2-c2ccccc23)cc1
pIC50 (Plasmodium falciparum [10]): 5.30

CNC(=O)c1ccc2c3c(ccc2c1)Oc1ccc2cc(C(=O)NC)ccc2c1C3c1ccc(Cl)cc1
pIC50 (NB-4): 6.12

c1ccc(C2c3c(ccc4ccccc34)Oc3ccc4ccccc4c32)cc1
Activity [2]: 63.5% | Activity [3]: 31.1%

CC(C)(C)C(=O)N[C@H]1CC[C@@H]2Oc3ccc(-c4cncc(F)c4)cc3C3(CSC(N)=N3)[C@H]2C1 (some centres undefined)
pIC50 (Beta-secretase 1): 8.96

O=C(O)c1c(Cl)c(Cl)c(Cl)c(Cl)c1-c1c2cc(I)c(=O)c(I)c-2oc2c(I)c(O)c(I)cc12 [ROSE BENGAL SODIUM]
pIC50 [11]: 4.14 | pIC50 [12]: 3.87 | pIC50 [13]: 4.12 | pIC50 [14]: 7.30 | pIC50 [15]: 4.12 | pIC50 [16]: 8.10 | pIC50 [17]: 6.52 | pIC50 [18]: 4.29 | pIC50 [19]: 4.35 | pIC50 [20]: 4.14

O=[As][As+](=O)[O-] (centres undefined) [ARSENIC TRIOXIDE]
pIC50 (NB-4): 5.27

CC(=O)C1C(=O)C[C@@H]2CC[C@@]13c1c(cccc12)Oc1ccc2ccccc2c13 (some centres undefined)
pIC50 (HeLa [21]): 4.52 | pIC50 (MG-63 [22]): 4.08 | pIC50 (A549): 4.26 | pIC50 (Bel-7402 [23]): 4.77

COCc1cc(C)cc2c1Oc1ccc(C)cc1C2
MIC (Bacillus subtilis): 25.4 µg/mL (≈ 99.9 µM)

CN(C)C(=N)NC(=N)N [METFORMIN]
pEC50 [8]: 2.00

CCOC12C(=O)C(CO)=Cc3cc(CO)cc(c31)Oc1c(CO)cc3cc(CO)ccc3c12 (centres undefined)
pIC50 (MG-63 [5]): 4.60 | pIC50 (Bel-7402 [6]): 5.00 | pIC50 (HeLa [7]): 5.03 | pIC50 (SK-BR-3): 5.21

COc1ccc(C2c3c(ccc4ccccc34)Oc3ccc4ccccc4c32)cc1
Activity [2]: 67.5% | Activity [3]: 47.1%

O=C(O)CCc1c2ccc(=O)cc-2oc2cc(O)ccc12
Kis [9]: 27 µM

O=C1C=Cc2cccc3c2C1c1c(ccc2ccccc12)O3 (centres undefined)
pIC50 (MG-63 [5]): 4.70 | pIC50 (Bel-7402 [6]): 4.75 | pIC50 (HeLa [7]): 4.73 | pIC50 (SK-BR-3): 4.81

COC12C(=O)C=Cc3cc(Br)cc(c31)Oc1ccc3cc(Br)ccc3c12 (centres undefined)
pIC50 (MG-63 [5]): 4.41 | pIC50 (Bel-7402 [6]): 4.37 | pIC50 (HeLa [7]): 4.55 | pIC50 (SK-BR-3): 4.84
